According to US20220193025A1, “USE OF DIANHYDROHEXITOL TO ELIMINATE THE COSMETIC EFFECTS OF ACNE, DANDRUFF AND BAD ODORS” (ROQUETTE FRERES, priority 2019, published 2022):

Key:
[1] = test system: Candida albicans; conditions: U.S. Pat. No. 9,295,626, table 2; cited from earlier work
[2] = test system: Corynobacterium xerosis strain; test: Example 3: microbial population count over 28 days after contamination (microtiter method, TTC); type: cell-based, Corynebacterium xerosis; conditions: for Number of colony forming strains after: 24 h / Number of colony forming strains after: 7 days / Number of colony forming strains after: 14 days / Number of colony forming strains after: 21 days / Number of colony forming strains after: 28 days: 22° C.
Protocol: (§1) The samples are prepared under sterile conditions and deposited in microplates (2-ml wells) with the concentrations hereunder. Two analysis controls were produced: a positive control corresponding to 0.5% Phenonip®; a negative control consisting of 0.85% physiological saline solution. Samples and controls are contaminated by three bacterial strains, Staphylococcus epidermidis, Corynebacterium xerosis and Propionobacterium acnes, with around 1.43×10^5 to 4.15×10^5 colony forming units per milliliter, denoted cfu/ml. After contamination, the samples are carefully mixed by suction-discharge cycles in order to ensure a uniform distribution of the microorganism. The whole is incubated at 22° C. during 28 days. The microbial population is sampled and counted at 24 hours, 7, 14, 21 and 28 days for each bacterial strain. The contaminated samples are collected and then deposited in serial dilutions in microtiter plates, in the presence of culture medium, which is a saline solution with 0.85% sodium chloride, and a dehydrogenase activity indicator reagent, which is 2,3,5-triphenyltetrazolium chloride (denoted TTC). The results are presented in the following pages with the variation of the microbial population over the 28 days of study, for the tested microbial strain. The measurements of microbial populations in the samples collected at each time, are carried out according to the following microtiter method, for one sample collection. In the 96 wells with a volume of 250 μL of a microtiter plate, 20 μL of the collected sample are diluted by a factor of 10 by dispersion in 180 μL of Letheen broth (Difco, ref. 268110) containing 1.5% of Tween 80 (Sigma, ref. […]) and TTC (Sigma, ref. […]). The microplate is incubated for 48 hours at 32.5° C., and the growth of the microorganisms is monitored by the color change, from colorless to red/pink. The highest reciprocal dilution indicating a growth makes it possible to determine the log number of each microorganism at each time. The measurements of microbial populations taken at each collection time are expressed as colony forming units/ml.

[3] = test system: Aspergillus brasiliensis; conditions: U.S. Pat. No. 9,295,626, table 2; cited from earlier work
[4] = test system: Malassezia furfur strain; test: Example 2: microbial population count over 28 days after contamination (microtiter method, TTC); type: cell-based; conditions: for Number of colony forming strains after: 24 h / Number of colony forming strains after: 7 days / Number of colony forming strains after: 14 days / Number of colony forming strains after: 21 days / Number of colony forming strains after: 28 days: 22° C.
Protocol: as §1, with “by a Malassezia furfur fungal strain” for “by three bacterial strains, Staphylococcus epidermidis, Corynebacterium xerosis and Propionobacterium acnes,”, “around 1.50×10^4” for “around 1.43×10^5”, “to 3.80×10^4” for “to 4.15×10^5”, “for the” for “for each”

[5] = test system: Staphylococcus epidermidis strain; test: Example 3: microbial population count over 28 days after contamination (microtiter method, TTC); type: cell-based; conditions: for Number of colony forming strains after: 24 h / Number of colony forming strains after: 7 days / Number of colony forming strains after: 14 days / Number of colony forming strains after: 21 days / Number of colony forming strains after: 28 days: 22° C.
Protocol: as §1

[6] = test system: Propionobacterium acnes strain; test: as above; type: cell-based; conditions: for Number of colony forming strains after: 24 h / Number of colony forming strains after: 7 days / Number of colony forming strains after: 14 days / Number of colony forming strains after: 21 days / Number of colony forming strains after: 28 days: 22° C.
Protocol: as §1

[7] = test system: Staphylococcus aureus; conditions: U.S. Pat. No. 9,295,626, table 2; cited from earlier work
[8] = after 24 hours, for the three doses tested

SMILES: O[C@@H]1CO[C@H]2[C@@H]1OC[C@@H]2O [isosorbide, 1,4-3,6-dianhydrosorbitol]
- minimum inhibitory concentration [1]: 10%
- bactericidal effect (conclusion in words) [2]: moderate bactericide
- reduction of the number of colony forming strains [2, 8]: at least 3 log 10
- colony forming strain observed ([2]; after 7 days): not any more colony forming strain
- Number of colony forming strains after: 24 h ([2]; dose 1%): 4 × 10^2 colony forming units/ml
- Number of colony forming strains after: 7 days ([2]; dose 1%): 0 colony forming units/ml
- Number of colony forming strains after: 14 days ([2]; dose 1%): 0 colony forming units/ml
- Number of colony forming strains after: 21 days ([2]; dose 1%): 0 colony forming units/ml
- Number of colony forming strains after: 28 days ([2]; dose 1%): 0 colony forming units/ml
- Number of colony forming strains after: 24 h ([2]; dose 5%): 1 × 10^2 colony forming units/ml
- Number of colony forming strains after: 7 days ([2]; dose 5%): 0 colony forming units/ml
- Number of colony forming strains after: 14 days ([2]; dose 5%): 0 colony forming units/ml
- Number of colony forming strains after: 21 days ([2]; dose 5%): 0 colony forming units/ml
- Number of colony forming strains after: 28 days ([2]; dose 5%): 0 colony forming units/ml
- Number of colony forming strains after: 24 h ([2]; dose 9%): 3.7 × 10^2 colony forming units/ml
- Number of colony forming strains after: 7 days ([2]; dose 9%): 0 colony forming units/ml
- Number of colony forming strains after: 14 days ([2]; dose 9%): 0 colony forming units/ml
- Number of colony forming strains after: 21 days ([2]; dose 9%): 0 colony forming units/ml
- Number of colony forming strains after: 28 days ([2]; dose 9%): 0 colony forming units/ml
- minimum inhibitory concentration [3]: 10%
- effect on the strain (conclusion in words) [4]: bactericide
- colony forming strain observed ([4]; after 24 hours): no colony forming strain is observed
- Number of colony forming strains after: 24 h ([4]; dose of isosorbide 1%): 0 colony forming units/ml
- Number of colony forming strains after: 7 days ([4]; dose of isosorbide 1%): 0 colony forming units/ml
- Number of colony forming strains after: 14 days ([4]; dose of isosorbide 1%): 0 colony forming units/ml
- Number of colony forming strains after: 21 days ([4]; dose of isosorbide 1%): 0 colony forming units/ml
- Number of colony forming strains after: 28 days ([4]; dose of isosorbide 1%): 0 colony forming units/ml
- Number of colony forming strains after: 24 h ([4]; dose of isosorbide 5%): 0 colony forming units/ml
- Number of colony forming strains after: 7 days ([4]; dose of isosorbide 5%): 0 colony forming units/ml
- Number of colony forming strains after: 14 days ([4]; dose of isosorbide 5%): 0 colony forming units/ml
- Number of colony forming strains after: 21 days ([4]; dose of isosorbide 5%): 0 colony forming units/ml
- Number of colony forming strains after: 28 days ([4]; dose of isosorbide 5%): 0 colony forming units/ml
- Number of colony forming strains after: 24 h ([4]; dose of isosorbide 9%): 0 colony forming units/ml
- Number of colony forming strains after: 7 days ([4]; dose of isosorbide 9%): 0 colony forming units/ml
- Number of colony forming strains after: 14 days ([4]; dose of isosorbide 9%): 0 colony forming units/ml
- Number of colony forming strains after: 21 days ([4]; dose of isosorbide 9%): 0 colony forming units/ml
- Number of colony forming strains after: 28 days ([4]; dose of isosorbide 9%): 0 colony forming units/ml
- bactericidal effect (conclusion in words) [5]: weak bactericide
- reduction of the number of colony forming strains [5, 8]: at least 2 log 10
- colony forming strain observed ([5]; after 7 days): not any colony forming strain
- Number of colony forming strains after: 24 h ([5]; dose 1%): 4 × 10^3 colony forming units/ml
- Number of colony forming strains after: 7 days ([5]; dose 1%): 0 colony forming units/ml
- Number of colony forming strains after: 14 days ([5]; dose 1%): 0 colony forming units/ml
- Number of colony forming strains after: 21 days ([5]; dose 1%): 0 colony forming units/ml
- Number of colony forming strains after: 28 days ([5]; dose 1%): 0 colony forming units/ml
- Number of colony forming strains after: 24 h ([5]; dose 5%): 1 × 10^3 colony forming units/ml
- Number of colony forming strains after: 7 days ([5]; dose 5%): 0 colony forming units/ml
- Number of colony forming strains after: 14 days ([5]; dose 5%): 0 colony forming units/ml
- Number of colony forming strains after: 21 days ([5]; dose 5%): 0 colony forming units/ml
- Number of colony forming strains after: 28 days ([5]; dose 5%): 0 colony forming units/ml
- Number of colony forming strains after: 24 h ([5]; dose 9%): 7 × 10^2 colony forming units/ml
- Number of colony forming strains after: 7 days ([5]; dose 9%): 0 colony forming units/ml
- Number of colony forming strains after: 14 days ([5]; dose 9%): 0 colony forming units/ml
- Number of colony forming strains after: 21 days ([5]; dose 9%): 0 colony forming units/ml
- Number of colony forming strains after: 28 days ([5]; dose 9%): 0 colony forming units/ml
- bactericidal effect (conclusion in words) ([6]; Example 3): bactericide
- colony forming strain observed ([6]; after 24 hours, Example 3): no colony forming strain is observed
- Number of colony forming strains after: 24 h ([6]; dose 1%): 0 colony forming units/ml
- Number of colony forming strains after: 7 days ([6]; dose 1%): 0 colony forming units/ml
- Number of colony forming strains after: 14 days ([6]; dose 1%): 0 colony forming units/ml
- Number of colony forming strains after: 21 days ([6]; dose 1%): 0 colony forming units/ml
- Number of colony forming strains after: 28 days ([6]; dose 1%): 0 colony forming units/ml
- Number of colony forming strains after: 24 h ([6]; dose 5%): 0 colony forming units/ml
- Number of colony forming strains after: 7 days ([6]; dose 5%): 0 colony forming units/ml
- Number of colony forming strains after: 14 days ([6]; dose 5%): 0 colony forming units/ml
- Number of colony forming strains after: 21 days ([6]; dose 5%): 0 colony forming units/ml
- Number of colony forming strains after: 28 days ([6]; dose 5%): 0 colony forming units/ml
- Number of colony forming strains after: 24 h ([6]; dose 9%): 0 colony forming units/ml
- Number of colony forming strains after: 7 days ([6]; dose 9%): 0 colony forming units/ml
- Number of colony forming strains after: 14 days ([6]; dose 9%): 0 colony forming units/ml
- Number of colony forming strains after: 21 days ([6]; dose 9%): 0 colony forming units/ml
- Number of colony forming strains after: 28 days ([6]; dose 9%): 0 colony forming units/ml
- minimum inhibitory concentration [7]: 10%
